Source: US20040267017A1, “3-pyridyl or 4-isoquinolinyl thiazoles as c17, 20 lyase inhibitors” (priority 2001, published 2004)
Where two headings read alike, the source gives them in different places.

Legend:
[1] = biological target: T1, Recombinant human C17,20 lyase (hLyase) (Homo sapiens, UniProt P05093); test: Human C17,20 lyase biochemical assay (DHEA formation, RIA/SPA)
T1 construct: made in house; host or cells: Sf9 insect cells (baculovirus); hLyase-enriched microsomes
T1 sequence (P05093 1-508): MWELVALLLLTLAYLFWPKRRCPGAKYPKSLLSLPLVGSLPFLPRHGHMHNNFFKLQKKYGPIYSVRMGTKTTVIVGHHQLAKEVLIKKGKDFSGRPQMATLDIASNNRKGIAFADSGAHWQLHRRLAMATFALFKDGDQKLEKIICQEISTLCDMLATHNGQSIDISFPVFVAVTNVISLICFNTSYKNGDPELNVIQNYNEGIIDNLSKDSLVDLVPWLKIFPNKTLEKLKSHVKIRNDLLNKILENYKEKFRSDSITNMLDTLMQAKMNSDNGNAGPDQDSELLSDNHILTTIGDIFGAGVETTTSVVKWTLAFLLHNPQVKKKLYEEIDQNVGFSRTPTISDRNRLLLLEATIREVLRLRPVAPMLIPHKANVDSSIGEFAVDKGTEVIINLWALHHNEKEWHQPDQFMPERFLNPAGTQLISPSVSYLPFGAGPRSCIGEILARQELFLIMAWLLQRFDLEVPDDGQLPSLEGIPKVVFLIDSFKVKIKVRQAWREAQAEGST
Procedure: (§1) Recombinant human C17,20 lyase (hLyase) was expressed in (Sf9) cells, and hLyase enriched microsomes were prepared from cultures as described in the following reference: Baculovirus Expression of Bovine P450 in Sf9 Cells and Comparison with Expression in Yeast, Mammalian Cells, and E. Coli. Barnes H. J.; Jenkins, C. M.; Waterman, M. R., Archives of Biochemistry and Biophysics (1994) 315(2)489-494. Recombinant murine C17,20 lyase (mLyase) was prepared in a similar manner. hLyase and mLyase preparations were titrated using assay conditions to determine protein concentrations to be used for assays. Both mLyase and hLyase assays were run in an identical manner except that cytochrome b5 was omitted in the murine assays.
Test compounds were diluted […], serially in six steps, with 100% DMSO starting from 800 μM going to 51.2 nM reserving the first 2 columns for the generation of a standard curve. Each of these compound solutions in 100% DMSO was further diluted twenty fold in H2O to obtain compound concentrations ranging from 40 μM to 2.56 nM in 5% DMSO. […]
(§2) Enzymatic reactions were allowed to run for 2 h at rt with gentle agitation. […] The concentration of DHEA generated by hLyase was determined by radioimmunoassay (RIA) as described below.
(§3) 0.08 μCi ^3H-DHEA (1.6 μCi/mL) (NEN (NET814)) in scintillation proximity assay (SPA) buffer (100 mM Tris-HCl, pH 7.5, 50 mM NaCl, 0.5% BSA (Sigma A9647), 0.2% Tween 20) was added to each well. […] Mixtures were allowed to equilibrate with gentle agitation for 1 h followed by an overnight equilibration with no agitation. ^3H-DHEA bound to the SPA beads was determined by scintillation counting.
The concentration of DHEA generated in each reaction was calculated from raw data (CPM) and the standard curve. The lyase inhibitory activity of each compound was determined as the concentration of DHEA generated in the presence of test compounds, expressed as a percent inhibition compared to the DHEA concentration generated in the absence of test compounds (1−(nM DHEA formed in the presence of test compound/nM DHEA formed in the absence of test compounds)×100).

[2] = biological target: T2, Recombinant murine C17,20 lyase (mLyase) (Mus musculus, UniProt P27786); test: Murine C17,20 lyase biochemical assay (DHEA formation, RIA/SPA, cytochrome b5 omitted); conditions: Table V
T2 construct: made in house; host or cells: Sf9 insect cells (baculovirus), by analogy ('in a similar manner'); enriched microsomes
T2 sequence (P27786 1-507): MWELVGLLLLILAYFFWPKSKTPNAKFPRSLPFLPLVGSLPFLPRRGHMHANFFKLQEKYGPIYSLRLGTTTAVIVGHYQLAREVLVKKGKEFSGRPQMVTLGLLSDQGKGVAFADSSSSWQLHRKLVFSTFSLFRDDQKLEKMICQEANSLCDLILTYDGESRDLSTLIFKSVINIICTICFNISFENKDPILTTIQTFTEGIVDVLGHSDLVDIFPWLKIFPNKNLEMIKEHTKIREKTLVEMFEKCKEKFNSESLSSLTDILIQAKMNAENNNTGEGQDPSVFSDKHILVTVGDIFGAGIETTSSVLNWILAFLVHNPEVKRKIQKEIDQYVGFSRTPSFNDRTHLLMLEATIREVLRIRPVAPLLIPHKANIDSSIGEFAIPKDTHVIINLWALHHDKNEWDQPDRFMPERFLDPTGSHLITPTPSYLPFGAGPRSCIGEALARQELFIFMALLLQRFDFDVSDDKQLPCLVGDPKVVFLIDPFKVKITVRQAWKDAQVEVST
Procedure: as §1, with “Both mLyase and hLyase assays were run in an identical manner except that cytochrome b5 was omitted in the murine assays.” left out
as §2, §3
The concentration of DHEA generated in each reaction was calculated from raw data (CPM) and the standard curve. […]

powdery mildew = test: Test against powdery mildew
[3] = read-out: inhibitory IC50 against C17,20 human lyase

SMILES	IC50 [1, 3]	IC50 [2]	melting point	further results
Clc1ccc(-c2csc(-c3cccnc3)n2)c(Cl)c1 [2-(3-pyridyl)-4-(2,4-dichlorophenyl)thiazole, reference compound]	406 nM	1400 nM		% Inhibition against Powdery Mildew (powdery mildew; *Statistically insignificant): 80%
Cc1ccncc1-c1nc(-c2ccc(Cl)cc2Cl)cs1 [2-[4-methyl-3-pyridyl)-4-(2,4-dichlorophenyl)thiazole]	15 nM	39.7 nM		IC50 ([1]; Table V, read-out: Human Lyase IC50): 15.1 nM; % Inhibition against Powdery Mildew (powdery mildew; *Statistically insignificant; listed as 2-[4-methyl-3-pyridyl)-4-(2,4dichlorophenyl)thiazole): devoid of activity; % Inhibition against Powdery Mildew (powdery mildew; *Statistically insignificant, listed as drawing 261): 10%*
Cc1ccncc1-c1nc(Cc2ccc(Cl)cc2)cs1.Cl			165.5 to 170 °C	
Cc1sc(-c2cccnc2)nc1Nc1ccccc1 [Example 6]			110 °C	
Cl.Clc1ccc(-c2csc(-c3cnccc3Cl)n2)cc1			176.5 to 183.5 °C	
